{"source": "DBAASP", "assay_in_all_cases": "≥ marks a high value that may be exact or a test limit, other limits are often not marked, values filed in µg/mL are converted to µM", "key": {"[1]": {"test_system": "Candida glabrata 09050201"}, "[2]": {"test_system": "Staphylococcus aureus 08032706"}, "[3]": {"test_system": "Salmonella enterica subsp. enterica serovar Paratyphi A"}, "Shigella sp.": {"test_system": "Shigella sp."}, "[4]": {"test_system": "Candida albicans 08030102"}, "[5]": {"test_system": "Escherichia coli ATCC 25922"}, "Klebsiella pneumoniae": {"test_system": "Klebsiella pneumoniae"}, "[6]": {"test_system": "Candida albicans 08030401"}, "Escherichia coli": {"test_system": "Escherichia coli"}, "[7]": {"test_system": "Candida albicans 08022710"}, "Candida glabrata 08A802": {"test_system": "Candida glabrata 08A802"}, "[8]": {"test_system": "Candida albicans 08022821"}, "[9]": {"test_system": "Staphylococcus epidermidis"}, "[10]": {"test_system": "Stenotrophomonas maltophilia"}, "[11]": {"test_system": "Candida albicans 08030809"}, "Bacillus cereus": {"test_system": "Bacillus cereus"}, "Nocardia asteroides": {"test_system": "Nocardia asteroides"}, "[12]": {"test_system": "Enterococcus faecium 1299"}, "[13]": {"test_system": "Enterococcus faecalis NCTC 12201"}, "[14]": {"test_system": "Pseudomonas aeruginosa NCTC 13437"}, "[15]": {"test_system": "Enterococcus faecalis NCTC 12204"}, "[16]": {"test_system": "Pseudomonas syringae pv. tomato"}, "[17]": {"test_system": "Acinetobacter baumannii NCTC 13302"}, "Staphylococcus aureus 15": {"test_system": "Staphylococcus aureus 15"}, "[18]": {"test_system": "Enterococcus faecalis NCTC 775"}, "Escherichia coli 319238": {"test_system": "Escherichia coli 319238"}, "[19]": {"test_system": "Staphylococcus aureus NCTC 9144"}, "Pseudomonas syringae": {"test_system": "Pseudomonas syringae"}, "[20]": {"test_system": "Escherichia coli CFI_161_NDM"}, "[21]": {"test_system": "Pseudomonas aeruginosa PAO1"}, "[22]": {"test_system": "Xanthomonas axonopodis pv. phaseoli"}, "Escherichia coli LEC 001": {"test_system": "Escherichia coli LEC 001"}, "Escherichia coli BL21": {"test_system": "Escherichia coli BL21"}, "[23]": {"test_system": "Escherichia coli NCTC 12923"}, "Klebsiella pneumoniae M6": {"test_system": "Klebsiella pneumoniae M6"}, "[24]": {"test_system": "Acinetobacter baylyi ADP1"}, "Acinetobacter baumannii": {"test_system": "Acinetobacter baumannii"}, "[25]": {"test_system": "Xanthomonas axonopodis pv. phaseoli ATCC 9563"}, "[26]": {"test_system": "Streptococcus pyogenes GAS M1T1"}, "[27]": {"test_system": "Escherichia coli CFI_160_KPC2"}, "[28]": {"test_system": "Acinetobacter baumannii ATCC 17987"}, "[29]": {"test_system": "Acinetobacter baumannii AYE"}, "[30]": {"test_system": "Klebsiella pneumoniae NCTC 13368"}, "[31]": {"test_system": "Acinetobacter baumannii NCTC 13424"}, "[32]": {"test_system": "Xanthomonas axonopodis pv. glycines"}, "[33]": {"test_system": "Staphylococcus aureus ATCC 25923"}}, "note": "“And” between values parts separate entries of the source, which are not always exact repeats. Equal entries are not always repeated.", "data": [{"smiles": "CC[C@H](C)[C@H](NC(=O)[C@H](CO)NC(=O)[C@H](CO)NC(=O)CNC(=O)CNC(=O)CNC(=O)[C@H](C)NC(=O)[C@H](Cc1ccccc1)NC(=O)[C@H](Cc1ccccc1)NC(=O)[C@H](CCCCN)NC(=O)[C@H](CCCCN)NC(=O)[C@H](CC(C)C)NC(=O)[C@H](CCCN=C(N)N)NC(=O)[C@H](CCCN=C(N)N)NC(=O)[C@H](CCSC)NC(=O)[C@H](Cc1ccccc1)NC(=O)[C@H](CCCCN)NC(=O)[C@H](CCCN=C(N)N)NC(=O)[C@H](Cc1ccccc1)NC(=O)CNC(=O)[C@H](CC(N)=O)NC(=O)[C@H](CCCN=C(N)N)NC(=O)[C@@H](N)CCCCN)C(=O)N[C@@H](C)C(=O)N[C@@H](Cc1cnc[nH]1)C(=O)N[C@H](C(=O)N[C@@H](CCCCN)C(=O)N[C@@H](CC(C)C)C(=O)N[C@@H](Cc1cnc[nH]1)C(=O)O)[C@@H](C)CC", "note": "[KRNGFRKFMRRLKKFFAGGGSSIAHIKLH]", "values": [{"measurement": "MIC", "setting": "[1]", "value": 22.1, "unit": "µM"}, {"measurement": "MIC", "setting": "[2]", "value": 22.1, "unit": "µM"}, {"measurement": "MIC", "setting": "[3]", "value": 22.1, "unit": "µM"}, {"measurement": "MIC", "setting": "Shigella sp.", "value": 0.691, "unit": "µM"}, {"measurement": "MIC", "setting": "[4]", "value": 5.53, "unit": "µM"}, {"measurement": "MIC", "setting": "[5]", "value": 11.1, "unit": "µM"}, {"measurement": "MIC", "setting": "Klebsiella pneumoniae", "value": 22.1, "unit": "µM"}, {"measurement": "MIC", "setting": "[6]", "value": 11.1, "unit": "µM"}, {"measurement": "MIC", "setting": "Escherichia coli", "value": 22.1, "unit": "µM"}, {"measurement": "MIC", "setting": "[7]", "value": 11.1, "unit": "µM"}, {"measurement": "MIC", "setting": "Candida glabrata 08A802", "value": 11.1, "unit": "µM"}, {"measurement": "MIC", "setting": "[8]", "value": 11.1, "unit": "µM"}, {"measurement": "MIC", "setting": "[9]", "value": 22.1, "unit": "µM"}, {"measurement": "MIC", "setting": "[10]", "value": 2.77, "unit": "µM"}, {"measurement": "MIC", "setting": "[11]", "value": 11.1, "unit": "µM"}, {"measurement": "MIC", "setting": "Bacillus cereus", "value": 2.77, "unit": "µM"}, {"measurement": "MIC", "setting": "Nocardia asteroides", "value": 11.1, "unit": "µM"}, {"measurement": "MIC", "setting": "[12]", "value": 5.53, "unit": "µM"}]}, {"smiles": "CC[C@H](C)[C@H](NC(=O)[C@H](CCCCN)NC(=O)[C@H](CCC(=O)O)NC(=O)[C@H](CCCCN)NC(=O)[C@H](Cc1c[nH]c2ccccc12)NC(=O)[C@H](C)N)C(=O)N[C@@H](CCCN=C(N)N)C(=O)N[C@@H](CCCCN)C(=O)N[C@@H](CCCCN)C(=O)N[C@@H](CC(C)C)C(=O)N[C@@H](CCCCN)C(=O)N[C@@H](CC(N)=O)C(=O)N[C@@H](CCC(=O)O)C(=O)N[C@H](C(=O)N[C@@H](CCCCN)C(=O)N[C@@H](CCCCN)C(=O)N[C@@H](CCCCN)C(=O)N[C@@H](Cc1c[nH]c2ccccc12)C(=O)N[C@@H](CCCN=C(N)N)C(=O)N[C@@H](CCCCN)C(=O)N[C@@H](C)C(=O)N[C@H](C(=O)N[C@H](C(=O)N[C@@H](C)C(=O)N[C@@H](Cc1c[nH]c2ccccc12)C(=O)O)[C@@H](C)CC)C(C)C)[C@@H](C)CC", "note": "[AWKEKIRKKLKNEIKKKWRKAVIAW]", "values": [{"measurement": "MIC", "setting": "[13]", "value": "≥ 40.3", "unit": "µM"}, {"measurement": "MIC", "setting": "[14]", "value": "≥ 40.3", "unit": "µM"}, {"measurement": "MIC", "setting": "[15]", "value": 5.03, "unit": "µM"}, {"measurement": "MIC", "setting": "[16]", "value": 0.0786, "unit": "µM"}, {"measurement": "MIC", "setting": "[17]", "value": 0.315, "unit": "µM"}, {"measurement": "MIC", "setting": "Staphylococcus aureus 15", "value": "≥ 40.3", "unit": "µM"}, {"measurement": "MIC", "setting": "[18]", "value": "≥ 40.3", "unit": "µM"}, {"measurement": "MIC", "setting": "Escherichia coli 319238", "value": 1.26, "unit": "µM"}, {"measurement": "MIC", "setting": "[19]", "value": 2.52, "unit": "µM"}, {"measurement": "MIC", "setting": "Pseudomonas syringae", "value": 8, "unit": "µM"}, {"measurement": "MIC", "setting": "[20]", "value": 0.315, "unit": "µM"}, {"measurement": "MIC", "setting": "[21]", "value": "8 µM and 5.03 µM"}, {"measurement": "MIC", "setting": "[22]", "value": 0.0786, "unit": "µM"}, {"measurement": "MIC", "setting": "Escherichia coli LEC 001", "value": 2.52, "unit": "µM"}, {"measurement": "MIC", "setting": "Escherichia coli BL21", "value": 2, "unit": "µM"}, {"measurement": "MIC", "setting": "[23]", "value": 0.157, "unit": "µM"}, {"measurement": "MIC", "setting": "Klebsiella pneumoniae M6", "value": 2.52, "unit": "µM"}, {"measurement": "MIC", "setting": "[24]", "value": 0.629, "unit": "µM"}, {"measurement": "MIC", "setting": "Acinetobacter baumannii", "value": 0.315, "unit": "µM"}, {"measurement": "MIC", "setting": "[25]", "value": 0.25, "unit": "µM"}, {"measurement": "MIC", "setting": "[26]", "value": 8, "unit": "µM"}, {"measurement": "MIC", "setting": "[27]", "value": 0.629, "unit": "µM"}, {"measurement": "MIC", "setting": "[28]", "value": 0.315, "unit": "µM"}, {"measurement": "MIC", "setting": "[29]", "value": 0.315, "unit": "µM"}, {"measurement": "MIC", "setting": "[30]", "value": 5.03, "unit": "µM"}, {"measurement": "MIC", "setting": "[31]", "value": 0.629, "unit": "µM"}]}, {"smiles": "CC[C@H](C)[C@H](NC(=O)[C@@H](NC(=O)[C@H](CO)NC(=O)[C@H](Cc1c[nH]c2ccccc12)NC(=O)[C@H](CC(C)C)NC(=O)CN)[C@@H](C)O)C(=O)N[C@@H](CCCCN)C(=O)N[C@@H](CC(N)=O)C(=O)N[C@H](C(=O)N[C@@H](C)C(=O)N[C@@H](C)C(=O)N[C@@H](C)C(=O)N[C@@H](C)C(=O)NCC(=O)N[C@@H](CCCCN)C(=O)N[C@@H](C)C(=O)N[C@@H](C)C(=O)N[C@@H](CC(C)C)C(=O)NCC(=O)N[C@@H](C)C(=O)N[C@@H](CC(C)C)C(N)=O)C(C)C", "note": "[GLWSTIKNVAAAAGKAALGAL]", "values": [{"measurement": "MIC", "setting": "[5]", "value": 17.8, "unit": "µM"}, {"measurement": "MIC", "setting": "[32]", "value": 2, "unit": "µM"}, {"measurement": "MIC", "setting": "[33]", "value": 32.3, "unit": "µM"}]}]}
